Reference: patent US10619133B2, “Engineered living tissue substitute” (NATIONAL UNIVERSITY OF IRELAND, GALWAY, priority 2011, dated 2020)

Assays:
enzymatic activity = settings: cited from earlier work
[1] = system: human umbilical arterial smooth muscle cells (HUASMC); assay: ECM / collagen-1 deposition in human umbilical arterial smooth muscle cells; type: cell-based; settings: 0, 25, 50, 100 μM ascorbic acid; p>0.05
Description: Human lung fibroblasts (WI-38; American Tissue Culture Collection), Human skin fibroblasts (WS-1; American Tissue Culture Collection) were routinely cultured in Dulbecco's modified Eagle medium with 10% fetal bovine serum (FBS), 1% penicillin-streptomycin at 37° C. in a humidified atmosphere of 5% CO2. Commercially available Smooth Muscle Growth Medium-2 (CLONETICS® SmGM®-2) and supplements (SmGM-2 SingleQuots) were used for human umbilical arterial smooth muscle cells (HUASMC; CLONETICS® UASMC-Human Umbilical Artery Smooth Muscle Cells; Lonza CC-2579). Cells were seeded at 50,000 cells/well in 24-well plates and were allowed to attach for 24 hours. […] To induce collagen synthesis, fibroblasts were supplemented with 100 μM L-ascorbic acid phosphate. The HUASMC was supplemented with various concentration of ascorbic acid (0 μM, 25 μM, 50 μM and 100 μM). In some of the experiment commercially available human serum (Lonza, Belgium) was also used as supplement in place of FBS. At the end of culture time points, culture media were collected into separate vials, whereas cell layers were washed twice with Hank's balanced salt solution (HBSS). […] Cell layer and Medium samples were analyzed by SDS-PAGE under nonreducing conditions with Mini-Protean 3 (Bio-Rad Laboratories). […] Collagen bands were quantified by defining each band with the rectangular tool with background subtraction.

SMILES | effect on enzymatic activity (enzymatic activity) | effect of ascorbic acid on ECM deposition [1]
OC[C@H]1O[C@@](CO)(O[C@H]2O[C@H](CO)[C@@H](O)[C@H](O)[C@H]2O)[C@@H](O)[C@@H]1O [Sucrose] | Ineffective | –
O=C1O[C@H]([C@@H](O)CO)C(O)=C1O [ascorbic acid] | – | did not affected ECM deposition
